Test results taken from patent US20070010484A1, “Method for treating or inhibiting the effects of injuries or diseases that result in neuronal degeneration and method for promoting neurogenesis” (YEDA RESEARCH AND DEVELOPMENT CO. LTD., priority 2003, published 2007).

Assays:
PC12 cells [1] = assay: Neurite outgrowth assay in NGF-stimulated PC12 cells; assay type: cell-based, rat; conditions: PC12 cells, NGF 10 ng/ml
Description: PC12 cell line: Rat pheochromocytoma (PC12) cells were cultured in DMEM containing 8% horse serum and either 8% FCS (culture medium) or 1% FCS (differentiation medium), and antibiotics. For assays of neurite outgrowth, the cells were plated (10^5 cell/well) on 13-mm glass coverslips, precoated with collagen (500 μg/ml) in 24-well plates. Neurite outgrowth assays: PC12 cells were cultured for 24-72 h while being stimulated with 10 ng/ml NGF, with or without CSPG-DSs. Cell morphology was visualized under a phase-contrast microscope and neurite lengths were measured using ImagePro. At least 200 cells were measured for each condition.

[2] = system: retinal ganglion cells (RGCs); assay: Experimental autoimmune uveitis (EAU), RGC survival; assay type: in vivo; conditions: R16-immunized Lewis rats, i.p. on days 3, 6, 9, 12 and 17; counted 3 weeks after immunization; mean±SD
Description: Induction of experimental autoimmune uveitis. To induce experimental autoimmune uveitis (EAU), Lewis rats were immunized with R16 (30 μg), a peptide derived from an ocular antigen IRBP emulsified in CFA containing 2.5 mg/ml M. tuberculosis. A total volume of 100 μl was injected s.c. into each rat at the root of the tail. Rats were then divided into three groups. On days 3, 6, 9, 12 and 17 after immunization the rats in the first group were injected i.p. with CSPG-DS (15 μg/rat), and rats in the second group were injected i.p. with methylprednisolone (MP. 30 mg/kg; Solu-Medrol, 125 mg/ml, Pharmacia & Upjohn, Puurs, Belgium). Rats in third group were left untreated.

PC12 cells [3] = assay: LPA-induced neurite retraction in differentiated PC12 cells; assay type: cell-based, rat; conditions: NGF-differentiated PC12 cells, LPA 1 μg/ml, 20 min
Description: PC12 cell line: Rat pheochromocytoma (PC12) cells were cultured in DMEM containing 8% horse serum and either 8% FCS (culture medium) or 1% FCS (differentiation medium), and antibiotics. For assays of neurite outgrowth, the cells were plated (10^5 cell/well) on 13-mm glass coverslips, precoated with collagen (500 μg/ml) in 24-well plates. Treatment of PC12 cells with lysophosphatidic acid (LPA). PC12 cells were placed and were differentiated for 3 days in the presence of 100 ng/ml NGF, in collagen-precoated culture dishes (Corning). […] The cells were then fixed with 4% paraformaldehyde (PFA) and analyzed by Nomarski microscopy. The longest neurite of each cell was measured and the results are expressed as their mean±SEM.

Compound: CC(=O)N[C@H]1C(O)O[C@H](CO)[C@H](O)[C@@H]1O[C@@H]1OC(C(=O)O)=C[C@H](O)[C@H]1O (stereo partly drawn) [Di-0S, 2-acetamido-2-deoxy-3-O-(β-D-gluco-4-enepyranosyluronic acid)-D-galactose]
- effect on neurite outgrowth (PC12 cells [1]): no effect

Compound: C[C@H]1C[C@@H]2[C@H]([C@@H](O)C[C@@]3(C)[C@H]2CC[C@]3(O)C(=O)COC(=O)CCC(=O)[O-])[C@@]2(C)C=CC(=O)C=C12.[Na+] [MP, reference compound]
- RGC loss relative to normal rats [2]: 59±1.6%

Compound: lysophosphatidic acid [LPA, reference compound]
- neurite collapse by LPA alone (PC12 cells [3]): induced neurite collapse
